Where “and” joins values, the source holds several entries; their conditions need not be identical. Equal values may be shown once. Entries after “also recorded” stand apart in the source; their conditions may differ. Read-outs that look alike come from different tables or passages of the source.
Key:
cornea = settings: cited from earlier work
[1] = system: corneal stromal cell (keratocytes) nuclei; test: Wash bottle study (500-mL bottle, active wash): TUNEL counts and depth of damage (DoD); type: cell-based; settings: eyes exposed to 32% sodium hypochlorite, then actively washed 15 min with 500 mL
Description: (§1) Whole New Zealand White rabbit eyes were used Prior to exposure a 10-mm internal dosing ring (FIG. 12A, part of the IVD kit) was placed over the central cornea that was then exposed to NaOCl.
(§2) Prior to each experiment (<1 h), NaOCl (CASRN 7681-52-9, Sigma-Aldrich, St. Louis, MO) was freshly diluted in sterile deionized water, mixed by five tube inversions prior to each application, and applied directly to the eyes (corneas) by transferring 100 μL with a micropipette into the dosing ring (FIG. 12A); the corneas were then exposed to this solution for exactly 1 min. Immediately after exposure, corneas were rinsed for exactly 30 s by forcefully dispensing 20 mL saline (9 g/L NaCl) from an eye rinsing syringe (part of the IVD kit). The pH of the 32% NaOCl was measured using a Fisherbrand™ Accumet™ AB150 pH benchtop meter (Fisher Scientific, Waltham, MA).
A 100-ml beaker or 500-mL emergency eye wash bottle (FIG. 12B) was used to prepare the AA solution and wash the eyes (Lebrun and Nguyen, 2024). These containers hold a ready-to-use eye wash buffer (EWB) solution composed of potassium chloride (CASRN 7447-40-7, 2.7 mM; Fisher Scientific), potassium phosphate monobasic (CASRN 7778-77-0, 1.5 mM; Fisher Scientific), sodium chloride (CASRN 7647-14-5, 137.9 mM; Fisher Scientific), sodium phosphate dibasic (CASRN 7782-85-6, 8.1 mM; Sigma Aldrich), deionized water (ReadyRefresh, Stamford, CT), 1% dextran (CASRN 9004-54-0; Sigma Aldrich), and 1% bovine serum albumin (CASRN 9048-46-8; Sigma Aldrich). Before use, different amounts of powdered AA (CASRN 50-81-7; Sigma Aldrich) are dispersed into the liquid component and rapidly mixed to achieve a predefined concentration (Lebrun et al., 2021c, 2021d, 2021e) to form complete EWB+AA. […] The pH of the liquid portion of the wash solution is adjusted to 7.2 with HCl to ensure that the final wash solution for the 0.2% powdered AA reaches a pH of 6.99±0.5. For the 10% AA condition, the pH was further adjusted to 6.99±0.5 with 1 N NaOH. For the EWB only condition, the pH was adjusted to 6.99±0.5 with 1 N HCl. For the wash step, eyes were either passively soaked in beakers (100-mL conditions) or washed with an eyewash bottle (500-mL conditions) for the indicated times. The eyewash bottle allows for forceful spraying and recycling of the 500-mL solution (Lebrun and Nguyen, 2024). While this bottle can be used in vivo or in vitro, for the in vitro study described here, the eyes were placed cornea-side down in the well at the top of the bottle, and the bottles were compressed so that a jet of solution washed over the eye (see FIG. 12B).
The corneas of whole eyes were exposed to either 100 μL of 32% NaOCl for 1 min or 100 μL deionized sterile water for 1 min (control condition) in a dosing ring. Eyes were then rinsed, and all eyes were washed using 500-mL wash bottles (FIG. 12B). Washing was with sterile tap water (municipal water, Anaheim, CA, 0.22-micron pore size filtered), EWB, or EWB+0.2% AA. After “washing,” eyes were processed following the “postexposure” steps described below.
After washing, eyes were placed in fresh postexposure wells (part of the IVD kit) containing approximately 1.5 mL OM added to the level of the limbus. Eyes were then placed back into a humidified, 5% CO2, 37° C. incubator for 24 h. Corneas were then removed by dissection, placed in 4% paraformaldehyde in phosphate-buffered saline (fixative; Boston BioProducts, Inc., Milford, MA), and stored at 4° C.
After a minimum of 24 h in fixative, corneas were cut in half and infiltrated with 30% sucrose (Capella et al., 1965), and the tissues were then embedded in Tissue-Tek® O.C.T. compound (Sakura Finetek, Torrance, CA), snap frozen in liquid nitrogen, and stored in an ultralow freezer (−80° C., New Brunswick Scientific, Hamburg, Germany). […]

[2] = pH measurement of solutions; type: physicochemical; settings: 32% NaOCl
Description: In another study, how quickly washing must be initiated was studied. AA wash was formulated as described above and used just after injury, 10 minutes after injury or 2 hours after injury. […] However this solution took 3.5 hours of rapid mixing to fully go into solution and the another 1.5 hours to adjust the pH which initially feel below to a pH of 3.25.
as §2

[3] = system: corneal stromal cell (keratocytes) nuclei; test: NaOCl titration study, TUNEL positive nuclei counts; type: cell-based; settings: New Zealand White, rabbit, 1 min, 8 %
Description: as §1
as §2, with “Immediately after exposure, corneas were rinsed for exactly 30 s by forcefully dispensing 20 mL saline (9 g/L NaCl) from an eye rinsing syringe (part of the IVD kit).” left out, “MA). […]” for “MA).”
Stained sections were viewed using a Leica DMRE fluorescence microscope (Leica Microsystems Inc., Buffalo Grove, IL). […] An L5 Fluorescence Filter Cube (Leica Microsystems Inc., Buffalo Grove, IL) was used for TUNEL and DoD imaging. Images were processed and analyzed using ImageJ software, version 1.54 (Schneider et al., 2012). […] Three corneal cryosections, each approximately 2.3 mm long and 0.5-0.9 mm wide (depending on swelling), were measured for each eye. To count TUNEL-positive nuclei, the number of discrete TUNEL-positive nuclei in the stroma that meet the size parameters associated with a keratocyte nucleus were recorded for each section using ImageJ software. […]

O=C1O[C@H]([C@@H](O)CO)C(O)=C1O [AA, ascorbic acid]
effect on corneal ulceration (cornea; subcutaneous injection of 15% AA solution within 3 h of the burn, once daily): ineffective; also recorded: not effective
effect on corneal ulceration (cornea; topical 10% AA eye drop pH 7.2, 2 h after the burn and hourly for 14 h per day): reduced corneal ulceration

Water
Depth of Damage (DoD), AVG ± SE (overall average) [1]: 59.6 ± 3.6%
Depth of Damage (DoD), S. AVG ± SE (section average per eye) [1]: 44.2 ± 2.8% and 68.5 ± 0.5% and 60.9 ± 0.7%
TUNEL positive nuclei count, AVG ± SE (overall average) [1]: 254.9 ± 17.8
TUNEL positive nuclei count, S. AVG ± SE (section average per eye) [1]: 231.0 ± 4.0 and 238.0 ± 2.6 and 287.7 ± 4.1
TUNEL positive nuclei count, AVG ± SE (overall average) ([1]; listed as tap water): 254.9±17.8
Depth of Damage (DoD), AVG ± SE (overall average) ([1]; listed as water): 59.6±3.6%
Depth of Damage (DoD), S. AVG ± SE (section average per eye) ([1]; listed as water): 44.2±2.8% and 68.5±0.5% and 60.9±0.7%
TUNEL positive nuclei count, AVG ± SE (overall average) ([1]; listed as water): 254.9±17.8
TUNEL positive nuclei count, S. AVG ± SE (section average per eye) ([1]; listed as water): 231.0±4.0 and 238.0±2.6 and 287.7±4.1
Depth of Damage (DoD), Section A ([1]; per eye): 47.0% and 68.4% and 62.3%
Depth of Damage (DoD), Section B ([1]; per eye): 41.4% and 69.4% and 59.8%
TUNEL positive nuclei count, Section A ([1]; per eye): 227.0 and 234.0 and 289.0
TUNEL positive nuclei count, Section B ([1]; per eye): 235.0 and 243.0 and 280.0
Depth of Damage (DoD), Section A ([1]; per eye, listed as water): 47.0% and 68.4% and 62.3%
Depth of Damage (DoD), Section B ([1]; per eye, listed as water): 41.4% and 69.4% and 59.8%
Depth of Damage (DoD), Section C ([1]; per eye, listed as water): 67.6% and 60.7%
TUNEL positive nuclei count, Section A ([1]; per eye, listed as water): 227.0 and 234.0 and 289.0
TUNEL positive nuclei count, Section B ([1]; per eye, listed as water): 235.0 and 243.0 and 280.0
TUNEL positive nuclei count, Section C ([1]; per eye, listed as water): 237.0 and 294.0

OCl [NaOCl, sodium hypochlorite]
pH [2]: 12.04 and 12
TUNEL positive nuclei count, AVG ± SE (overall average) [3]: 3.1 ± 3.1

— patent US12648892B2, “Emergency eye wash” (Lebrun Labs LLC, priority 2024, dated 2026)
